From US20260022142A1, “MACROCYCLIC IMMUNOMODULATORS” (Bristol-Myers Squibb Company, priority 2022, published 2026)
pIC50: −log10 of the molar value. Bridge positions count the residues as written; N and C are the ends. Square brackets hold non-standard residues; d marks the D form. Peptide text beside a SMILES is read from it. * marks the point of attachment. ξ: configuration not given here. Phe(3-CF3) = N[C@@H](Cc1cccc(C(F)(F)F)c1)C(=O)O; Ala(morpholin-4-yl) = N[C@@H](CN1CCOCC1)C(=O)O; Phe(4-COOH) = N[C@@H](Cc1ccc(C(=O)O)cc1)C(=O)O; Bip = N[C@@H](Cc1ccc(-c2ccccc2)cc1)C(=O)O; Tyr(3-F) = N[C@@H](Cc1ccc(O)c(F)c1)C(=O)O; NH(CH2)14COOH = O=C(O)CCCCCCCCCCCCCCN*; Phe(3-Me) = Cc1cccc(C[C@H](N)C(=O)O)c1; Phe(4-F) = N[C@@H](Cc1ccc(F)cc1)C(=O)O; NH(CH2)12COOH = O=C(O)CCCCCCCCCCCCN*; Phe(2-Me) = Cc1ccccc1C[C@H](N)C(=O)O; Val(3-OH) = CC(C)(O)[C@H](N)C(=O)O; Cha = N[C@@H](CC1CCCCC1)C(=O)O; Cit = NC(=O)NCCC[C@H](N)C(=O)O; Ile(3ξ) = CCC(C)[C@H](N)C(=O)O; Thr(3ξ) = CC(O)[C@H](N)C(=O)O; PEG4 = NCCOCCOCCOCCOCCC(=O)O; Carboxymethyl = O=C(O)C*; Nle = CCCC[C@H](N)C(=O)O; Orn = NCCC[C@H](N)C(=O)O; Aun = NCCCCCCCCCCC(=O)O; Dab = NCC[C@H](N)C(=O)O; Nva = CCC[C@H](N)C(=O)O; Dap = NC[C@H](N)C(=O)O; AEEA = NCCOCCOCC(=O)O

target: T1, PD-1/PD-L1 interaction (PE-labeled human PD-L1-Ig binding to Jurkat cell line over-expressing human PD-1) (Homo sapiens, UniProt Q15116); test: Jurkat-PD-1 Cell Binding High-Content Screening Assay (CBA); type: cell-based; conditions: Jurkat cell line over-expressing human PD-1; PE-labeled PD-L1-Ig 20 nM final; read-out: Jurkat hPD1-PDL1 IC50
T1 construct: expressed in transfected cells; host or cells: Jurkat
In short: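 Binding of fluorescent PD-L1-Ig (phycoerythrin on Ig tag, 20 nM final, 1 h) measured by high-content imaging of fixed, Hoechst-counterstained Jurkat-hPD-1 cells. Compound added 2 h at 37° C beforehand, in DMEM with 10% fetal calf serum.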

T1 sequence (Q15116 25-288): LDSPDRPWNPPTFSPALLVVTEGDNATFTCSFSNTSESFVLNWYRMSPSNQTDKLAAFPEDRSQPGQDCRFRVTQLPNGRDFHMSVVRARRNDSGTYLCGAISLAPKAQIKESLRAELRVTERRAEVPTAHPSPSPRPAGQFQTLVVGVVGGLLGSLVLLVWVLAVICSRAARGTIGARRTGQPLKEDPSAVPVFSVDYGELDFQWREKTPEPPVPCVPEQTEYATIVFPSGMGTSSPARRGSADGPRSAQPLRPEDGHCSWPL

SMILES | pIC50
Cc1cccc(C[C@@H]2NC(=O)[C@H](CC(=O)O)NC(=O)[C@H](Cc3ccc(OCC(=O)O)cc3)NC(=O)[C@H](CN)NC(=O)CSC[C@@H](C(=O)N[C@@H](CCCN)C(=O)NCCCCCCCCCCCCCCC(=O)O)NC(=O)[C@H](C(C)O)NC(=O)[C@H](C(C)C)NC(=O)[C@H](CC3CCCCC3)NC(=O)[C@H](CCN)NC(=O)[C@@H](CC(C)C)NC(=O)[C@H](CCCN)NC(=O)[C@H](CCCNC(N)=O)NC(=O)[C@H](Cc3ccc(-c4ccccc4)cc3)NC(=O)[C@H](C(C)C)NC2=O)c1 (stereo partly drawn) [Compound 3124] ({CH2CO}-[Dap]Y(Carboxymethyl)D[Phe(3-Me)]V[Bip][Cit][Orn][dL][Dab][Cha]V[Thr(3ξ)]C[Orn]-{NH(CH2)14COOH}; thioether N-14) | 6.55
CCC(C)[C@@H]1NC(=O)[C@H](Cc2ccc(-c3ccccc3)cc2)NC(=O)[C@H](C(C)C)NC(=O)[C@H](Cc2c[nH]c3ccccc23)NC(=O)[C@H](CC(=O)O)NC(=O)[C@H](Cc2ccc(OCC(=O)O)cc2)NC(=O)[C@H](Cc2ccc(F)cc2)NC(=O)CSC[C@@H](C(=O)N[C@@H](CCN)C(=O)NCCOCCOCC(=O)NCCCCCCCCCCC(=O)O)NC(=O)[C@H](CC(=O)O)NC(=O)[C@H](C(C)O)NC(=O)[C@H](CC2CCCCC2)NC(=O)[C@H](CCN)NC(=O)[C@@H](CC(C)C)NC(=O)[C@H](CCCN)NC1=O (stereo partly drawn) [Compound 3802] ({CH2CO}-[Phe(4-F)]Y(Carboxymethyl)DWV[Bip][Ile(3ξ)][Orn][dL][Dab][Cha][Thr(3ξ)]DC[Dab][AEEA][Aun]-OH; thioether N-14) | 7.44
Cc1cccc(C[C@@H]2NC(=O)[C@H](CC(=O)O)NC(=O)[C@H](Cc3ccc(OCC(=O)O)cc3)NC(=O)[C@H](Cc3c[nH]cn3)NC(=O)CSC[C@@H](C(=O)N[C@@H](CCN)C(=O)NCCOCCOCC(=O)NCCOCCOCC(=O)NCCCCCCCCCCCCC(=O)O)NC(=O)[C@H](CO)NC(=O)[C@H](C(C)(C)O)NC(=O)[C@H](CC3CCCCC3)NC(=O)[C@H](CCN)NC(=O)[C@@H](CC(C)C)NC(=O)[C@H](CCCN)NC(=O)[C@H](Cc3ccc(C(=O)O)cc3)NC(=O)[C@H](Cc3ccc(-c4ccccc4)cc3)NC(=O)[C@H](Cc3ccc(C(=O)O)cc3)NC2=O)c1 [Compound 2895] ({CH2CO}-HY(Carboxymethyl)D[Phe(3-Me)][Phe(4-COOH)][Bip][Phe(4-COOH)][Orn][dL][Dab][Cha][Val(3-OH)]SC[Dab][AEEA][AEEA]-{NH(CH2)12COOH}; thioether N-14) | 7.94
CCCC[C@@H]1NC(=O)[C@H](C(C)C)NC(=O)[C@H](CC2CCCCC2)NC(=O)[C@H](CCN)NC(=O)[C@@H](CC(C)C)NC(=O)[C@H](CCCN)NC(=O)[C@H](Cc2ccc(O)cc2)NC(=O)[C@H](Cc2ccc(-c3ccccc3)cc2)NC(=O)[C@H](C(C)C)NC(=O)[C@H](Cc2cccc(C)c2)NC(=O)[C@H](CC(=O)O)NC(=O)[C@H](Cc2ccc(OCC(=O)O)cc2)NC(=O)[C@H](CN)NC(=O)CSC[C@@H](C(=O)N[C@@H](CCN)C(=O)NCCCCCCCCCCC(=O)O)NC1=O [Compound 2720] ({CH2CO}-[Dap]Y(Carboxymethyl)D[Phe(3-Me)]V[Bip]Y[Orn][dL][Dab][Cha]V[Nle]C[Dab][Aun]-OH; thioether N-14) | 6.87
CCC[C@@H]1NC(=O)CSC[C@@H](C(=O)N[C@@H](CCN)C(=O)NCCOCCOCC(=O)NCCOCCOCC(=O)NCCCCCCCCCCCCCCC(=O)O)NC(=O)[C@H](CO)NC(=O)[C@H](C(C)(C)O)NC(=O)[C@H](CC2CCCCC2)NC(=O)[C@H](CCN)NC(=O)[C@@H](CC(C)C)NC(=O)[C@H](CCCN)NC(=O)[C@H](Cc2ccc(OCC(=O)O)cc2)NC(=O)[C@H](Cc2ccc(-c3ccccc3)cc2)NC(=O)[C@H](Cc2ccc(OCC(=O)O)cc2)NC(=O)[C@H](Cc2cccc(C)c2)NC(=O)[C@H](CC(=O)O)NC(=O)[C@H](Cc2ccc(OCC(=O)O)cc2)NC1=O [Compound 2866] ({CH2CO}-[Nva]Y(Carboxymethyl)D[Phe(3-Me)]Y(Carboxymethyl)[Bip]Y(Carboxymethyl)[Orn][dL][Dab][Cha][Val(3-OH)]SC[Dab][AEEA][AEEA]-{NH(CH2)14COOH}; thioether N-14) | 7.00
Cc1cccc(C[C@@H]2NC(=O)[C@H](CC(=O)O)NC(=O)[C@H](Cc3ccc(OCC(=O)O)cc3)NC(=O)[C@H](CN)NC(=O)CSC[C@@H](C(=O)N[C@@H](CCN)C(=O)NCCOCCOCC(=O)NCCCCCCCCCCC(=O)O)NC(=O)[C@H](CCCN)NC(=O)[C@H](C(C)C)NC(=O)[C@H](CC3CCCCC3)NC(=O)[C@H](CCN)NC(=O)[C@@H](CC(C)C)NC(=O)[C@H](CCCN)NC(=O)[C@H](Cc3ccc(O)cc3)NC(=O)[C@H](Cc3ccc(-c4ccccc4)cc3)NC(=O)[C@H](Cc3ccccc3C)NC2=O)c1 [Compound 2069] ({CH2CO}-[Dap]Y(Carboxymethyl)D[Phe(3-Me)][Phe(2-Me)][Bip]Y[Orn][dL][Dab][Cha]V[Orn]C[Dab][AEEA][Aun]-OH; thioether N-14) | 7.83
CC(C)C[C@H]1NC(=O)[C@H](CCCN)NC(=O)[C@H](C(C)C)NC(=O)[C@H](Cc2ccc(-c3ccccc3)cc2)NC(=O)[C@H](C(C)C)NC(=O)[C@H](Cc2c[nH]c3ccccc23)NC(=O)[C@H](CC(=O)O)NC(=O)[C@H](Cc2ccc(OCC(=O)O)cc2)NC(=O)[C@H](Cc2ccc(OCC(=O)O)cc2)NC(=O)CSC[C@@H](C(=O)N[C@@H](CCN)C(=O)NCCOCCOCC(=O)NCCCCCCCCCCC(=O)O)NC(=O)[C@H](CN)NC(=O)[C@H](C(C)C)NC(=O)[C@H](CC2CCCCC2)NC(=O)[C@H](CCN)NC1=O [Compound 2554] ({CH2CO}-Y(Carboxymethyl)Y(Carboxymethyl)DWV[Bip]V[Orn][dL][Dab][Cha]V[Dap]C[Dab][AEEA][Aun]-OH; thioether N-14) | 7.94
CC(C)C[C@H]1NC(=O)[C@H](CCCN)NC(=O)[C@H](Cc2ccc(OCC(=O)O)cc2)NC(=O)[C@H](Cc2ccc(-c3ccccc3)cc2)NC(=O)[C@H](Cc2ccc(O)cc2)NC(=O)[C@H](Cc2ccc(O)c(F)c2)NC(=O)[C@H](CC(=O)O)NC(=O)[C@H](Cc2ccc(OCC(=O)O)cc2)NC(=O)[C@H](CN)NC(=O)CSC[C@@H](C(=O)N[C@@H](CCN)C(=O)NCCCCCCCCCCC(=O)O)NC(=O)[C@H]([C@@H](C)O)NC(=O)[C@H](C(C)C)NC(=O)[C@H](CC2CCCCC2)NC(=O)[C@H](CCN)NC1=O [Compound 2107] ({CH2CO}-[Dap]Y(Carboxymethyl)D[Tyr(3-F)]Y[Bip]Y(Carboxymethyl)[Orn][dL][Dab][Cha]VTC[Dab][Aun]-OH; thioether N-14) | 6.93

Now from value to molecule:

pIC50 | SMILES
7.95 | CC(=O)NCCCC[C@@H]1NC(=O)[C@H](Cc2ccc(-c3ccccc3)cc2)NC(=O)[C@H](C(C)C)NC(=O)[C@H](Cc2cccc(C)c2)NC(=O)[C@H](CC(=O)O)NC(=O)[C@H](Cc2ccc(OCC(=O)O)cc2)NC(=O)[C@H](CCCNC(=N)N)NC(=O)CSC[C@@H](C(=O)N[C@H](CC(N)=O)C(=O)NCCCCCCCCCCC(=O)O)NC(=O)[C@H](C(C)O)NC(=O)[C@H](C(C)C)NC(=O)[C@H](CC2CCCCC2)NC(=O)[C@H](CCN)NC(=O)[C@@H](CC(C)C)NC(=O)[C@H](CCCN)NC1=O (stereo partly drawn) [Compound 3548] ({CH2CO}-RY(Carboxymethyl)D[Phe(3-Me)]V[Bip]K(Ac)[Orn][dL][Dab][Cha]V[Thr(3ξ)]C[dN][Aun]-OH; thioether N-14)
6.45 | CC(C)C[C@H]1NC(=O)[C@H](CCCN)NC(=O)[C@H](Cc2ccc(C(=O)O)cc2)NC(=O)[C@H](Cc2ccc(-c3ccccc3)cc2)NC(=O)[C@H](Cc2ccc(C(=O)O)cc2)NC(=O)[C@H](Cc2cccc(C(F)(F)F)c2)NC(=O)[C@H](CC(=O)O)NC(=O)[C@H](Cc2ccc(OCC(=O)O)cc2)NC(=O)[C@H](CN2CCOCC2)NC(=O)CSC[C@@H](C(=O)N[C@@H](CCN)C(=O)NCCOCCOCCOCCOCCC(=O)NCCCCCCCCCCCCCCC(=O)O)NC(=O)[C@H](CC(=O)O)NC(=O)[C@H](C(C)(C)O)NC(=O)[C@H](CC2CCCCC2)NC(=O)[C@H](CCN)NC1=O [Compound 2948] ({CH2CO}-[Ala(morpholin-4-yl)]Y(Carboxymethyl)D[Phe(3-CF3)][Phe(4-COOH)][Bip][Phe(4-COOH)][Orn][dL][Dab][Cha][Val(3-OH)]DC[Dab][PEG4]-{NH(CH2)14COOH}; thioether N-14)
7.15 | Cc1cccc(C[C@@H]2NC(=O)[C@H](CC(=O)O)NC(=O)[C@H](Cc3ccc(O)cc3)NC(=O)[C@H](CC(N)=O)NC(=O)CSC[C@@H](C(=O)N[C@@H](CCCN)C(=O)NCCCCCCCCCCC(=O)O)NC(=O)[C@H](CCC(N)=O)NC(=O)[C@H](C(C)C)NC(=O)[C@H](CC(C)C)NC(=O)[C@H](CCN)NC(=O)[C@@H](CC(C)C)NC(=O)[C@H](CCCN)NC(=O)[C@H](CCCNC(N)=O)NC(=O)[C@H](Cc3ccc(-c4ccccc4)cc3)NC(=O)[C@H](C(C)C)NC2=O)c1 [Compound 2790] ({CH2CO}-NYD[Phe(3-Me)]V[Bip][Cit][Orn][dL][Dab]LVQC[Orn][Aun]-OH; thioether N-14)
6.89 | Cc1cccc(C[C@@H]2NC(=O)[C@H](CC(=O)O)NC(=O)[C@H](Cc3ccc(OCC(=O)O)cc3)NC(=O)[C@H](CN)NC(=O)CN[C@@H](C(=O)N[C@@H](CCN)C(=O)NCCCCCCCCCCC(=O)O)CNC(=O)[C@H]([C@@H](C)O)NC(=O)[C@H](C(C)C)NC(=O)[C@H](CC3CCCCC3)NC(=O)[C@H](CCN)NC(=O)[C@@H](CC(C)C)NC(=O)[C@H](CCCN)NC(=O)[C@H](CCCNC(N)=O)NC(=O)[C@H](Cc3ccc(-c4ccccc4)cc3)NC(=O)[C@H](C(C)C)NC2=O)c1 [Compound 2158]
7.49 | CC(C)C[C@@H]1NC(=O)[C@H](Cc2c[nH]c3ccccc23)NC(=O)[C@H](CC(=O)O)NC(=O)[C@H](Cc2ccc(C(=O)O)cc2)NC(=O)[C@H](Cc2ccc(OCC(=O)O)cc2)NC(=O)CSC[C@@H](C(=O)N[C@@H](CCCN)C(=O)NCCCCCCCCCCC(=O)O)NC(=O)[C@H](CCCNC(N)=O)NC(=O)[C@H](C(C)C)NC(=O)[C@H](CC2CCCCC2)NC(=O)[C@H](CCN)NC(=O)[C@@H](CC(C)C)NC(=O)[C@H](CCCN)NC(=O)[C@H](Cc2ccc(O)cc2)NC(=O)[C@H](Cc2ccc(-c3ccccc3)cc2)NC1=O [Compound 1235] ({CH2CO}-Y(Carboxymethyl)[Phe(4-COOH)]DWL[Bip]Y[Orn][dL][Dab][Cha]V[Cit]C[Orn][Aun]-OH; thioether N-14)
